# Assays:
# blood glucose [1] = test: Blood glucose, oral mixed micellar insulin vs injection, fasted Type II diabetic volunteers (Example 8); type: in vivo, human; conditions: injection 10 units, avg of 10 fasted Type II diabetics
# Description: In one set of tests, ten Type II diabetic human volunteers who took insulin, by injection three times a day, were studied. In another set of tests the volunteers were tested with insulin, faken orally. The volunteers fasted from midnight prior to the test, with no food being taken during the 4 hour study. On the first day, the volunteers received 10 units insulin by injection (regular fast acting insulin, available from Eli Lilly). On the second day, the volunteers received 30 units (1 mL volume per drop, approximately 20 drops) of the above-prepared oral insulin (3 times the injection dose). In both tests, blood glucose levels were monitored every 15 minutes by Bayer's Glucometer Elite.
# blood glucose [2] = test: Blood glucose, oral mixed micellar insulin (bacitracin, evening primrose oil) vs injection, fasted volunteers (Example 14); type: in vivo, human; conditions: injection 10 units, avg of six fasted volunteers
# Description: Six human volunteers were studied. The volunteers fasted from midnight prior to the test, with no food being taken during the 4 hour study. On the first day, the volunteers received 10 units insulin by injection (regular fast acting insulin, available from Eli Lilly). On the second day, the volunteers received 20 units of the above-prepared oral insulin (twice the injection dose). In both tests, blood glucose levels were monitored at intervals by Bayer's Glucometer Elite.
substance,measurement,setting,value
"regular fast acting insulin: regular fast acting insulin, available from Eli Lilly, given by injection (10 units)",Blood glucose levels,blood glucose [1]; 0 min,6.8 mmol/L
same,Blood glucose levels,blood glucose [1]; 15 min,6.9 mmol/L
same,Blood glucose levels,blood glucose [1]; 30 min,6.1 mmol/L
same,Blood glucose levels,blood glucose [1]; 45 min,5.8 mmol/L
same,Blood glucose levels,blood glucose [1]; 60 min,5.8 mmol/L
same,Blood glucose levels,blood glucose [1]; 75 min,5.8 mmol/L
same,Blood glucose levels,blood glucose [1]; 90 min,5.4 mmol/L
same,Blood glucose levels,blood glucose [1]; 105 min,5.4 mmol/L
same,Blood glucose levels,blood glucose [1]; 120 min,5.2 mmol/L
same,Blood glucose levels,blood glucose [1]; 135 min,5.1 mmol/L
same,Blood glucose levels,blood glucose [1]; 150 min,4.9 mmol/L
same,Blood glucose levels,blood glucose [1]; 165 min,4.9 mmol/L
same,Blood glucose levels,blood glucose [1]; 180 min,4.8 mmol/L
same,Blood glucose levels,blood glucose [1]; 195 min,4.8 mmol/L
same,Blood glucose levels,blood glucose [1]; 210 min,5.2 mmol/L
same,Blood glucose levels,blood glucose [1]; 225 min,5.2 mmol/L
same,Blood glucose levels,blood glucose [1]; 240 min,5.4 mmol/L
same,Blood glucose levels,blood glucose [2]; 0 min,7.9 mmol/L
same,Blood glucose levels,blood glucose [2]; 15 min,7.9 mmol/L
same,Blood glucose levels,blood glucose [2]; 30 min,8.2 mmol/L
same,Blood glucose levels,blood glucose [2]; 45 min,8.3 mmol/L
same,Blood glucose levels,blood glucose [2]; 60 min,7.6 mmol/L
same,Blood glucose levels,blood glucose [2]; 90 min,6.2 mmol/L
same,Blood glucose levels,blood glucose [2]; 120 min,5.2 mmol/L
same,Blood glucose levels,blood glucose [2]; 150 min,4.6 mmol/L
same,Blood glucose levels,blood glucose [2]; 180 min,3.9 mmol/L
same,Blood glucose levels,blood glucose [2]; 210 min,4.4 mmol/L
same,Blood glucose levels,blood glucose [2]; 240 min,5.2 mmol/L
